PMC11801377, “A uniquely efficacious type of CFTR corrector with complementary mode of action” (Science Advances, 2024)

Legend:
I507del CFTR = target: T1, I507del CFTR (Homo sapiens, UniProt P13569, DEL507-507); test: CFTR correction (immunoblotting), HEK-TREx, I507del; format: cell-based; settings: 48 hours, IDOR-3 2 μM, IDOR-4 0.4 μM, TEZ 2 μM + ELX 0.4 μM
T1 construct: expressed in transfected cells; host or cells: T-REx HEK293
Text: (§1) The human CFTR expressing HEK cell pools with the mutations described below were generated by integrase-mediated homologous recombination of the CFTR sequence into the T-REx HEK293 background (Thermo Fisher Scientific). This expression system allows the tetracycline-inducible expression of genes of interest from one defined insertion site. Parental T-REx-HEK293 cells were cultivated in growth medium: Dulbecco’s modified Eagle’s medium + GlutaMAX-I (#31966, Life Technologies), 10% dialyzed FBS (Gibco, #26400), penicillin (100 U/ml), streptomycin (100 μg/ml), hygromycin B (0.1 mg/ml; Life Technologies), blasticidin (5 μg/ml; Invitrogen, #R210-01), and 0.1 mM nonessential amino acid solution (Invitrogen, #11140-035). Recombinant T-REx-HEK-CFTR cells were generated by lipofectamine transfection (Life Technologies) of plasmids containing mutated versions of CFTR (RefSeq NM_000492) and then cultivated in selection medium [growth medium containing Geneticin (1 mg/ml) (Invitrogen, #10131-027) instead of hygromycin]. The plasmid constructs were synthetized by GENEART (Thermo Fisher Scientific) and designed with the WT CFTR intron 5 to 6 (880 nucleotides) to prevent leaky expression issues during the cloning process in bacteria. […]

R1066C CFTR = target: T2, R1066C CFTR (Homo sapiens, UniProt P13569, R1066C); test: CFTR correction (immunoblotting), HEK-TREx, R1066C; format: cell-based; settings: 48 hours, IDOR-3 2 μM, IDOR-4 0.4 μM, TEZ 2 μM + ELX 0.4 μM
T2 construct: expressed in transfected cells; host or cells: T-REx HEK293
T2 sequence (P13569 whole entry R1066C): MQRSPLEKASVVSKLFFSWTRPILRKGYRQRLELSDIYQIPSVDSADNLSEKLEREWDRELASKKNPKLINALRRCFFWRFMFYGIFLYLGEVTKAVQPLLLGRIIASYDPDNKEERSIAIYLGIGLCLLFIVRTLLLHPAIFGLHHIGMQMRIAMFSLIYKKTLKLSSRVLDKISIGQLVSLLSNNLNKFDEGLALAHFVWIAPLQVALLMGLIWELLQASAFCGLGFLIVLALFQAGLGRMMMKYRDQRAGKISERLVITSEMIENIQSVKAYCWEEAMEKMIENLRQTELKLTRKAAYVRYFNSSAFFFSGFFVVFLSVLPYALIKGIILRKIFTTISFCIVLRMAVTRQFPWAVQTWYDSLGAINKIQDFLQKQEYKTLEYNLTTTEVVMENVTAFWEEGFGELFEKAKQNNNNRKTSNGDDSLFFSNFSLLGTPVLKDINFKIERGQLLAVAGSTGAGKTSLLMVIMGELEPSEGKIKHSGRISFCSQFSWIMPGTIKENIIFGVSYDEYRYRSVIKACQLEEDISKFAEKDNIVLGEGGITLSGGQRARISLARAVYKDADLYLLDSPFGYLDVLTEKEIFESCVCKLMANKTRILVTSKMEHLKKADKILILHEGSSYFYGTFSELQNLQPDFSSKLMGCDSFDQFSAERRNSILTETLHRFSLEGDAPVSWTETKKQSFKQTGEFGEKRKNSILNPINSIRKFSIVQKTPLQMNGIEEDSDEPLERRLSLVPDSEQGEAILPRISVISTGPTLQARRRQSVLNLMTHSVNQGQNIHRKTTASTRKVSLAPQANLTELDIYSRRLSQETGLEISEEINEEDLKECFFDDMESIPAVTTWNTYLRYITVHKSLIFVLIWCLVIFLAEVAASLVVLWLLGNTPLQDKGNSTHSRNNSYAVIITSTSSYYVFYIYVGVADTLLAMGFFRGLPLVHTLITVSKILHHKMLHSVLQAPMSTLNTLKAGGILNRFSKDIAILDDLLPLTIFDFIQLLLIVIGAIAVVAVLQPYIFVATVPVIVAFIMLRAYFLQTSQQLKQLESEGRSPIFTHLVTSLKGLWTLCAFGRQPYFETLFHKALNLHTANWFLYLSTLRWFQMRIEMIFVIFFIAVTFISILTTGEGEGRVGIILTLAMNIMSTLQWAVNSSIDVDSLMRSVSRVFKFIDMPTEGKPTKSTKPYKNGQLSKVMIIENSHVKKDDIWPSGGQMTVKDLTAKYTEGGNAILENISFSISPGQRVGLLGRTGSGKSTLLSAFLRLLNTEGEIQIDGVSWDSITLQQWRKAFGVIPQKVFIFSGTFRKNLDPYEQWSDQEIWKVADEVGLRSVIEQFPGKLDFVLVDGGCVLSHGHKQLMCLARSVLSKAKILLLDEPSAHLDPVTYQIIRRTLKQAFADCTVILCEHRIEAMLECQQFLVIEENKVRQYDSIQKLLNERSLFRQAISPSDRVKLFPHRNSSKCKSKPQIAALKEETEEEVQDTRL
Text: as §1

T1 sequence (P13569 with tags, fused parts or gaps DEL507-507): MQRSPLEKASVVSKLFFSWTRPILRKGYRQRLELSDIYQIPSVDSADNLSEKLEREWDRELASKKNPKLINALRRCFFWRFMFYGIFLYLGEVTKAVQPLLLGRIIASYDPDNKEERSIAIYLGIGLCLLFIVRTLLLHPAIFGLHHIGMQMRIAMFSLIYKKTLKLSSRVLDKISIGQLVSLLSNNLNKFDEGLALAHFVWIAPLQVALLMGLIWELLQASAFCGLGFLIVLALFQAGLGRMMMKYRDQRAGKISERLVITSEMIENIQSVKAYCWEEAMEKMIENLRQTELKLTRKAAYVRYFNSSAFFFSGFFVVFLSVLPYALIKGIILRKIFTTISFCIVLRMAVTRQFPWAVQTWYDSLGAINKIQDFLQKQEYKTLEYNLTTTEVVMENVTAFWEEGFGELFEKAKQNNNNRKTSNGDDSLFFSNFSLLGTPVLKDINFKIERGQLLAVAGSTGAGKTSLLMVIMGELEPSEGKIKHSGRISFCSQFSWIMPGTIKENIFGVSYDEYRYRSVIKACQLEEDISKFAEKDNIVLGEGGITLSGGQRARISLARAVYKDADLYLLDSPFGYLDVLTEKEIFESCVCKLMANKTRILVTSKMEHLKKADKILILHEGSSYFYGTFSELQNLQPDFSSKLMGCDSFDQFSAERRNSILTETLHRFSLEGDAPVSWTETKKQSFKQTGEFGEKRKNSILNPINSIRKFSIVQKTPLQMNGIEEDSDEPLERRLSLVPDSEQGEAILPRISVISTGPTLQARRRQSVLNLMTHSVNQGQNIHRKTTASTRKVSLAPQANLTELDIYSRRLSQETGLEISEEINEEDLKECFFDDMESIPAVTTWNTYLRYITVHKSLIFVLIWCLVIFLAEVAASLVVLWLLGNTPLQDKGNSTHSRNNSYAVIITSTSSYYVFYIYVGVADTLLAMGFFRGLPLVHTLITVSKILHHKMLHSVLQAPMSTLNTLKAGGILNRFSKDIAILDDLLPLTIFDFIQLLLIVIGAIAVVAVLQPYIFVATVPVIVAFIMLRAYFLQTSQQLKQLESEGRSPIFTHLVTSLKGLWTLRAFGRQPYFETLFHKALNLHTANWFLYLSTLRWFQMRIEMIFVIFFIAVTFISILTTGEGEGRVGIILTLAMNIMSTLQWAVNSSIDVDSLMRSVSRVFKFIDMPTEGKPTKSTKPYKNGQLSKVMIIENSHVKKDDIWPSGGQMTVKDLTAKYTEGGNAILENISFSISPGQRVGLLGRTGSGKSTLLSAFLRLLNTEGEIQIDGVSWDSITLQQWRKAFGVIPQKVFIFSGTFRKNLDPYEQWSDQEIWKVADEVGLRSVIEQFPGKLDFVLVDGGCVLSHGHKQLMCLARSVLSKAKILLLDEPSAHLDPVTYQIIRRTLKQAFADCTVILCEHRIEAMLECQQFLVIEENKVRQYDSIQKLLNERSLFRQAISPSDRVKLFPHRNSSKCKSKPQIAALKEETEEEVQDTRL

COc1cc(CCNC(=O)C2CC(=O)N(C)C(CC(C)C)C(=O)N3CCCCC3C(=O)NC(Cc3ccccc3)COc3ccc4ncc(F)cc4c3C(=O)N2)on1 (centres unmarked) [IDOR-3]
correction of I507del (I507del CFTR): highly effective
correction of R1066C (R1066C CFTR): highly effective
